Assay results taken from publication PMC11050070, “Chemical Modifications to Enhance the Drug Properties of a VIP Receptor Antagonist (ANT) Peptide” (International Journal of Molecular Sciences, 2024).
Where no end group is shown, it is not given here.

Experiment: Plasma stability T cell activation study
Assay type: in vitro ADME
Conditions: 200 μM peptide mixed 1:1 with healthy donors' plasma, 37 °C, aliquots at 24, 48, 72, 96 hrs; read-out pooled human T cell activation at 10 μM; three donors' plasma; retained up to 96 h (longest time tested); Figure S1
Protocol: 1.3 Plasma Stability T Cell Activation Study
200 μM ANT308 or 200 μM ANT308K-PEG were mixed with healthy donors’ plasma at 1:1 ratio, followed by incubation at 37 °C. Aliquots (150 μL) were collected at 24 hrs, 48 hrs, 72 hrs, and 96 hrs and stored at -80 °C before pooled human T cells activation assay. Assays were performed with three different donor ’s plasma.
Activated T cells Activated T cells
Non-Activated T cells Non-Activated T cells […]
Diffe rentDonors’ plasma Diffe rentDonors’ plasma
Pre-incubation Time ( hrs) Pre-incubation Time ( hrs)
Figure S1A-F: Plasma stability and human T cells activation. After incubation with healthy donors’ plasma at 37 °C for 24hrs, 48hrs, 72hrs, and 96hrs. 10 μM ANT308 (A,C,E) or 10 μM ANT308K-PEG (B,D,F) were directly mixed with isolated & pooled human T cells with the […]

- time of incubation in human plasma after which the ability to activate human T cells is retained: ≥ 96 h
Substance: KPRRPYTSDYTRLRKQMAVKKYLNLILN-NH2 [ANT308]
